In PMC8881610 (Nature Communications, 2022):
Substitutions are numbered along the chain they refer to.

Experiments:
Assay in all cases: Whole-cell binding assay, competition with 125I-GIP1-42
Parameters in all cases: acylated tirzepatide to the full-length or modified; Flag; expressed in transfected cells
GIPR [1] = biological target: T1, GIPR (Homo sapiens, UniProt P48546, F127A); conditions: GIPR F127A, CHO-K1
T1 sequence (P48546 22-466 F127A): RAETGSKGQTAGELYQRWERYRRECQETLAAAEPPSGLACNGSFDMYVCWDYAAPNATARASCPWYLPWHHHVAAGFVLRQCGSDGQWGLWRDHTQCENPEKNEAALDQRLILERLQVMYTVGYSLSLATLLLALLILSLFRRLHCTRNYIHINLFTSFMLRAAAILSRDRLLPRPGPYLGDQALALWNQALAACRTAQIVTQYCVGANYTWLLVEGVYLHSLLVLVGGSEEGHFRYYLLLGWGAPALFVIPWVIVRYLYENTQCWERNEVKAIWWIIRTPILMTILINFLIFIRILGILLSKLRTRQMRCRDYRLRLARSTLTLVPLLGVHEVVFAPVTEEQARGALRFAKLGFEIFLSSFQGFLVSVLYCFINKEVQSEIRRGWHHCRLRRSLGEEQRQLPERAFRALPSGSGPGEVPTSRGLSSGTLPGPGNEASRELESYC
Procedure, shortened: (§1)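 Transiently transfected CHO-K1 cells expressing WT or mutant GIPR were washed in F-12 with 0.1% BSA or 0.1% casein and 33 mM HEPES, then incubated 2 h at 37 °C. After ice-cold PBS washes, cells were lysed and bound radioactivity counted (CPM).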

GIPR [2] = biological target: T2, GIPR (Homo sapiens, UniProt P48546, Q285A); conditions: GIPR Q285A, CHO-K1
T2 sequence (P48546 22-466 Q285A): T1 sequence (P48546 22-466 F127A) with A106F, Q264A
Procedure, shortened: as §1

GIPR [3] = biological target: T3, GIPR (Homo sapiens, UniProt P48546, E135A); conditions: GIPR E135A, CHO-K1
T3 sequence (P48546 22-466 E135A): T1 sequence (P48546 22-466 F127A) with A106F, E114A
Procedure, shortened: as §1

[4] = read-out: binding pIC50 (converted)

CCCCCCCCCCCCCCCC(=O)N[C@@H](CCC(=O)NCCCC[C@H](NC(=O)[C@H](CC(=O)O)NC(=O)[C@H](CO)NC(=O)[C@@H](NC(=O)[C@H](Cc1ccccc1)NC(=O)[C@@H](NC(=O)CNC(=O)[C@H](CCC(N)=O)NC(=O)C(C)(C)NC(=O)[C@@H](N)Cc1c[nH]cn1)[C@@H](C)O)[C@@H](C)O)C(=O)N[C@@H](CO)C(=O)N[C@@H](CCCCN)C(=O)N[C@@H](Cc1ccc(O)cc1)C(=O)N[C@@H](CC(C)C)C(=O)N[C@@H](CC(=O)O)C(=O)N[C@@H](CCC(=O)O)C(=O)N[C@@H](CCCNC(=N)N)C(=O)N[C@@H](C)C(=O)N[C@@H](C)C(=O)N[C@@H](CCC(N)=O)C(=O)N[C@@H](CC(=O)O)C(=O)N[C@@H](Cc1ccccc1)C(=O)N[C@H](C(=O)N[C@@H](CCC(N)=O)C(=O)N[C@@H](Cc1c[nH]c2ccccc12)C(=O)N[C@@H](CC(C)C)C(=O)N[C@@H](CC(C)C)C(=O)N[C@@H](CC(=O)O)C(=O)NCC(=O)NCC(=O)N1CCC[C@H]1C(=O)N[C@@H](CO)C(=O)N[C@@H](CO)C(=O)NCC(=O)N[C@@H](C)C(=O)N1CCC[C@H]1C(=O)N1CCC[C@H]1C(=O)N1CCC[C@H]1C(=O)N[C@@H](CO)C(N)=O)C(C)C)C(=O)O [Peptide 20]
binding Span (GIPR [1]): 85.53 ± 4.36 % WT
IC50 (GIPR [1]; [4]): 20 nM
binding Span (GIPR [2]): 108.98 ± 3.60 % WT
IC50 (GIPR [2]; [4]): 13.5 nM
binding Span (GIPR [3]): 64.00 ± 2.46 % WT
IC50 (GIPR [3]; [4]): 5.62 nM
